Assay results reported in ChEMBL document CHEMBL5346912, “Discovery of 3,5-diaryl-1H-pyrazol-based ureas as potent RET inhibitors” (Eur J Med Chem, 2023).

What was measured:
BaF3 [1] = experiment: Antiproliferative activity against mouse BaF3 cells expressing CCDC6-RET-G810C incubated for 72 hrs by CCK8 assay; format: functional, cell-based; conditions: BaF3, 72 h
[2] = target: Proto-oncogene tyrosine-protein kinase receptor Ret (Homo sapiens, UniProt P07949); experiment: Binding affinity to RET (unknown origin) assessed as dissociation constant in presence of ATP by FRET based Z'-Lyte assay
BaF3 [3] = experiment: Antiproliferative activity against mouse BaF3 cells expressing CCDC6-RET-V804M incubated for 72 hrs by CCK8 assay; format: functional, cell-based; conditions: BaF3, 72 h
BaF3 [4] = experiment: Antiproliferative activity against mouse BaF3 cells expressing CCDC6-RET incubated for 72 hrs by CCK8 assay; format: functional, cell-based; conditions: BaF3, 72 h
BaF3 [5] = experiment: Antiproliferative activity against mouse BaF3 cells expressing CCDC6-RET-G810R incubated for 72 hrs by CCK8 assay; format: functional, cell-based; conditions: BaF3, 72 h
BaF3 [6] = experiment: cells; conditions: Mus musculus, BaF3, 72 h
Description: Antiproliferative activity against mouse BaF3 cells incubated for 72 hrs by CCK8 assay

Proto-oncogene tyrosine-protein kinase receptor Ret, sequence (P07949 whole entry): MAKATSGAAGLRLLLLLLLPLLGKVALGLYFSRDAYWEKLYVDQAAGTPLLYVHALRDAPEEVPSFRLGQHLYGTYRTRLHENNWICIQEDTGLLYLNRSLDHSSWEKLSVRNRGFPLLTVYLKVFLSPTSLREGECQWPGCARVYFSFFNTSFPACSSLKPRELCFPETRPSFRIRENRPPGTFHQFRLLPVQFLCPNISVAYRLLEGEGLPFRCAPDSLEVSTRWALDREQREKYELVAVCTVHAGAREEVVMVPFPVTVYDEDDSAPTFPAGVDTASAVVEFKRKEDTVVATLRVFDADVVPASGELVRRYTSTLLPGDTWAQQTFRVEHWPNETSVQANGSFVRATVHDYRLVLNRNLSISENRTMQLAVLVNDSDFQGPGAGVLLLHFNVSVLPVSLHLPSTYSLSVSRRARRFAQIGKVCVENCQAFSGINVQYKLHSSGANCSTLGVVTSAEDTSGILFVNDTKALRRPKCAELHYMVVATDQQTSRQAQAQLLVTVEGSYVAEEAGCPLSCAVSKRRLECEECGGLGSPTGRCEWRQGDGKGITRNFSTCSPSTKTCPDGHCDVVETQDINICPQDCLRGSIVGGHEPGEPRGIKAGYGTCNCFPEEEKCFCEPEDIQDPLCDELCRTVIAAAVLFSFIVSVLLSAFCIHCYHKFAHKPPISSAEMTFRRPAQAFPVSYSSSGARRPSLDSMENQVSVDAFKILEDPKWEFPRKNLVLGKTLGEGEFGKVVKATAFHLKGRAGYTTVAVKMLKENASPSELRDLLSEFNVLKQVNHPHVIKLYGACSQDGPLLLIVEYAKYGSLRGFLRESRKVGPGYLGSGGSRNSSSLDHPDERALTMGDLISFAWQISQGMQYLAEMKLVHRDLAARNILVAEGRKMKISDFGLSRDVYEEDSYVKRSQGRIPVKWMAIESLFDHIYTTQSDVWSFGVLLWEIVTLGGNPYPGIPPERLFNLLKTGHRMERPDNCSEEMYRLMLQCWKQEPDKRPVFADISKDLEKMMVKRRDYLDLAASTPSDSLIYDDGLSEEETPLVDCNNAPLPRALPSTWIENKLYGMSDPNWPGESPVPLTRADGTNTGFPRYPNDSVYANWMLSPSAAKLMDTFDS

| SMILES | IC50 (BaF3 [1]) [nM] | Kd [2] [nM] | IC50 (BaF3 [3]) [nM] | IC50 (BaF3 [4]) [nM] | IC50 (BaF3 [5]) [nM] | IC50 (BaF3 [6]) [nM] |
| --- | --- | --- | --- | --- | --- | --- |
| CC(C)(C)c1cc(NC(=O)Nc2ccc(-c3cc(-c4ccc(OCCN5CCOCC5)cc4F)[nH]n3)cc2)no1 | 412 | 8.3 | 18.1 | 17.9 | > 10000 | > 10000 |
| CC(C)(C)c1cc(NC(=O)Nc2ccc(-c3cc(-c4ccc(OCCN5CCOCC5)c(Cl)c4)[nH]n3)cc2)no1 | 159 | 9.4 | 27.9 | 20.4 | > 10000 | > 10000 |
| CC(C)(C)c1cc(NC(=O)Nc2ccc(-c3cc(-c4cccc(OCCN5CCOCC5)c4)[nH]n3)cc2)no1 | 587 | 6 | 188 | 226 | 1020 | 1560 |
| CC(C)(C)c1cc(NC(=O)Nc2ccc(-c3c[nH]c(-c4ccc(OCCN5CCOCC5)cc4Cl)n3)cc2)no1 | 802 | 31.5 | 491 | 404 | 716 | 772 |
| CN(C)CCOc1ccc(-c2cc(-c3ccc(NC(=O)Nc4cc(C(C)(C)C)on4)cc3)n[nH]2)cc1 | 103 | 3.2 | 8.5 | 7.9 | 842 | 1950 |
| CC(C)(C)c1cc(NC(=O)Nc2ccc(-c3cc(-c4ccc(OCCCN5CCOCC5)cc4)[nH]n3)cc2)no1 | 166 | 4.1 | 12.4 | 9.6 | 570 | 1080 |
| CC(C)(C)c1cc(NC(=O)Nc2ccc(-c3n[nH]c(-c4ccc(OCCN5CCOCC5)cc4Cl)n3)cc2)no1 | 682 | 10.2 | 339 | 328 | 869 | 424 |
| CC(C)(C)c1cc(NC(=O)Nc2ccc(-c3cc(-c4ccc(OCCN5CCOCC5)cc4)[nH]n3)cc2Cl)no1 | 335 | 21 | 36 | 29 | 746 | > 10000 |
| CC(C)(C)c1cc(NC(=O)Nc2ccc(-c3cc(-c4ccc(OCCN5CCOCC5)cc4)[nH]n3)cc2F)no1 | 99.9 | 8.1 | 6.6 | 7.1 | 1320 | > 3000 |
| COc1cc(-c2cc(-c3ccc(NC(=O)Nc4cc(C(C)(C)C(F)(F)F)on4)c(F)c3)n[nH]2)ccc1OCCN1CCOCC1 | 118 | 9 | 3.9 | 3 | 319 | 373 |
| COc1ccc(CN2[C@@H]3C[C@H]2CN(c2ccc(-c4cc(OCC(C)(C)O)cn5ncc(C#N)c45)cn2)C3)cn1 | 1310 | – | 26 | 11.5 | 883 | > 3000 |
| CC(C)(C)c1cc(NC(=O)Nc2ccc(-c3cc(-c4ccc(OCCN5CCOCC5)cc4)[nH]n3)c(Cl)c2)no1 | 410 | 16 | 209 | 165 | 1010 | 1050 |
| CC(C)(C)c1cc(NC(=O)Nc2ccc(-c3cc(-c4ccc(OCCN5CCOCC5)cc4Br)[nH]n3)cc2)no1 | 606 | 15.5 | 62 | 67 | 1280 | 1210 |
